Results taken from patent US20200129514A1, “JAK INHIBITION AS A NOVEL THERAPY FOR PREVENTING TUMORS IN PEUTZ-JEGHERS SYNDROME” (Curingenetics, LLC, priority 2018, published 2020).

What was measured:
[1] = system: Lkb1FspKO/FspKO mice (PJS polyps); experiment: Ruxolitinib-containing chow treatment of Lkb1FspKO/FspKO mice, tumor burden after six weeks
Stat3 = Stat3 activation in primary epithelial crypts incubated with recombinant cytokine; type: cell-based; conditions: primary epithelial crypts isolated from mouse small intestine
Experimental: (§1) IL-11 signaling is mediated via its binding to the transmembrane receptor Gp130, resulting in activation of the Jak-Stat and MAPK pathways. Of these, the induction of Jak-Stat3 activation appears most critical in GI tumorigenesis. To investigate whether IL-11 is sufficient to induce Stat3 activation in isolated wild-type epithelium, we incubated primary epithelial crypts isolated from mouse small intestine with recombinant IL-11. […] Next, we addressed whether Stat3-dependent transcriptional changes observed in polyps can be induced by IL-11 in primary epithelial organoid cultures. We focused our analysis in Reg3b, Reg3g and Lrg1 genes due to their reported expression in inflammatory epithelium in a Stat3-dependent manner and overexpression in PJS model polyps (Supplemental FIG. 6D, Supplemental Table 3).

[2] = system: Reg3b, Reg3g and Lrg1 expression; experiment: Induction of Stat3-dependent genes in primary epithelial organoid cultures; type: cell-based
Experimental: as §1

Row | Molecule | tumor-free mice ([1]; ruxolitinib chow 2 g/kg, 6/11 treated mice, all non-treated mice developed polyps) [%] | average polyp diameter ([1]; ruxolitinib chow, 2.51 in non-treated, p=0.082, not significant) [mm] | average tumor number ([1]; ruxolitinib chow, 6.54 in non-treated) | average tumor area ([1]; ruxolitinib chow, 47.4 in non-treated) [mm2] | activation of Stat3 (Stat3) | induction of Reg3b, Reg3g and Lrg1 expression [2]
1 | N#CC[C@H](C1CCCC1)n1cc(-c2ncnc3[nH]ccc23)cn1 [ruxolitinib, Ruxolitinib] | 55 | 1.68 | 1.27 | 3.58 |  | 
2 | IL-6: IL-6 cytokine used as comparator for Stat3 activation |  |  |  |  | comparably | 
3 | IL-11: recombinant IL-11, an IL-6 family cytokine signalling via Gp130 (protein, UniProt P20809 22-199, looked up) Interleukin-11: PGPPPGPPRVSPDPRAELDSTVLLTRSLLADTRQLAAQLRDKFPADGDHNLDSLPTLAMSAGALGALQLPGVLTRLRADLLSYLRHVQWLRRAGGSSLKTLEPELGTLQARLDRLLRRLQLLMSRLALPQPPPDPPAPPLAPPSSAWGGIRAAHAILGGLHLTLDWAVRGLLLLKTRL |  |  |  |  | resulted in activation of Stat3 | robust induction
